{"source": "paper PMC9267059", "about": "“Selective Inhibition of Murine Cytomegalovirus Viral Gene Expression by the Antiviral Peptide TAT-I24” (International Journal of Molecular Sciences, 2022)", "key": {"BrdU-labelled MCMV DNA": {"tested_on": "BrdU-labelled MCMV DNA", "experiment": "Staining of BrdU-labelled MCMV DNA in NIH/3T3 cells", "type": "cell-based, murine cytomegalovirus", "method": "When infection of cells is performed with MCMV labelled with bromodeoxyuridine (BrdU), a clear reduction in BrdU-labelled genomes in TAT-I24-treated cells can be observed. It was speculated that this was due to the interaction of the peptide with the viral DNA, leading to the prevention of BrdU-antibody binding. This was further supported by the observation that the incubation of cells with TAT-I24 after fixation and permeabilization led to an impairment of BrdU-staining. As additional support for this concept, BrdU-labelled MCMV was adsorbed to NIH/3T3 cells at 4 °C in the absence or presence of 10 µM TAT-I24. Cells were then washed with ice-cold medium followed by transfer to 37 °C and fixation and permeabilization 30 min post-cold release. In one setting, cells were additionally treated with pepsin for 20 min at 37 °C to degrade the peptide.\nNIH/3T3 cells were seeded at a density of 4 × 10^4 cells/well into ibiTreat eight-well chambers (ibidi, Gräfelfing, Germany). Bromodeoxyuridine (BrdU)-labelled virus was adsorbed to cells in the absence or presence of 10 µM TAT-I24 as described before. Pepsin treatment was performed by incubation of cells after fixation, permeabilization and denaturation with Pepsin Reagent, Ready to Use, Antigen Retriever (Merck; Schnelldorf, Germany) for 20 min. Cells were then washed twice with 1xTBE followed by three washes with PBS. […]"}, "MCMV": {"tested_on": "MCMV", "experiment": "Crystal violet staining of MCMV-infected NIH/3T3 cells (cytopathic effects)", "type": "cell-based, murine cytomegalovirus", "method": "This strain was also used in the present investigation. […] However, with increasing concentrations of TAT-I24, the cytopathic effects caused by the virus infection were inhibited (Figure 1A). […] For all further investigations, 10 µM of TAT-I24 was therefore chosen to ensure efficient inhibition of MCMV infection.\nNIH/3T3 cells were seeded at a density of 2 × 10^4 cells/well of a 96-well plate and allowed to attach overnight. On the next day, cells were treated with increasing concentrations of TAT-I24 and infected with MCMV strain delm157-luc rep with centrifugal enhancement twice at 800× g for 15 min. After 48 h, cells were fixed with 4% formaldehyde and stained with 1% crystal violet solution for 30 min at room temperature followed by three times washing with water. Microscopic examination was performed using a Live Cell Video Microscope (Leica Microsystems; Wetzlar, Germany)."}, "MCMV viral DNA": {"tested_on": "MCMV viral DNA", "experiment": "MCMV viral DNA determined by ie1 PCR from RNA extracts", "type": "cell-based, murine cytomegalovirus", "method": "The levels of viral DNA in the RNA extracts were also determined by PCR using the ie1 primer pair. In peptide-treated cells, the amount of viral DNA was about 60% compared to untreated cells. The amount of viral DNA declined in both settings between 2 and 8 h. […] This is in accordance with our earlier study using detection of the luciferase gene of MCMV strain delm157-luc rep."}, "[1]": {"tested_on": "MCMV viral gene expression", "experiment": "MCMV viral gene transcript levels by quantitative PCR relative to Gapdh", "type": "cell-based, murine cytomegalovirus", "method": "NIH/3T3 fibroblasts were infected with MCMV expressing luciferase at low MOI (MOI 1) with the aid of centrifugal enhancement. Infections were performed either in the absence or presence of 10 µM TAT-I24. Cells were lysed after 30 min or 2-, 4-, 8- and 24-h post-infection. Total RNA was isolated and treated with DNase I to remove viral DNA before synthesis of the cDNA. Levels of viral transcripts were then analyzed by quantitative PCR and normalized to mRNA levels of the glyceraldehyde-3-phosphate dehydrogenase (Gapdh) housekeeping gene.\nNIH/3T3 cells were seeded at a density of 8 × 10^4 cells/well of a 24-well plate and allowed to attach overnight. On the next day, MCMV strain delm157-luc rep was adsorbed to cells (MOI 1) in the absence or presence of 10 µM TAT-I24 and centrifuged twice at 800× g for 15 min. Cells were then kept at 37 °C and lysed after the indicated time-points."}, "[2]": {"tested_on": "host-cell transcripts in NIH/3T3 cells infected with UV-inactivated MCMV", "experiment": "Host-cell transcript levels in cells infected with UV-irradiated MCMV", "conditions": "UV-inactivated MCMV MOI 2.5, 10 µM, 2 h post-infection, three independent experiments"}, "NIH/3T3 cells": {"tested_on": "NIH/3T3 cells", "experiment": "Cell viability assay (Cell Titer Glo 2.0)", "type": "cell-based", "conditions": "10 µM, 48 h, Cell Titer Glo 2.0 luminescence, eight replicates per group", "method": "NIH/3T3 cells were grown in CO2-independent medium supplemented with 10% fetal calf serum, 2 mM glutamine and 1% antibiotic-antimycotic (ThermoFisher; Darmstadt, Germany) and cultivated in a humidified atmosphere at 37 °C and passaged once a week. For determination of cell viability, NIH/3T3 cells were seeded at a density of 2 × 10^4 cells/well of a 96-well plate and treated with vehicle (DMSO) or 10 µM TAT-I24. After 48 h, cells were lysed using Cell Titer Glo 2.0 reagent (Promega; Mannheim, Germany) and luminescence recorded using a GloMax Multi instrument (Promega; Mannheim, Germany)."}, "[3]": {"tested_on": "host-cell transcripts in NIH/3T3 cells infected with MCMV", "experiment": "Host-cell transcript levels by quantitative PCR in MCMV-infected NIH/3T3 cells", "type": "cell-based"}, "double-stranded DNA": {"tested_on": "double-stranded DNA", "conditions": "cited from earlier work", "method": "To determine whether reduction of host-gene expression early after MCMV infection is related to the ability of the peptide to bind DNA, variants of TAT-I24 were generated with modifications of the TAT fusion partner (Figure 5A). The peptides were tested for their potency in inhibiting MCMV replication and their binding to DNA. […] Inhibition is independent of whether these are immediate-early, early or late genes, as they were all reduced to a similar extent, thereby excluding a specific effect of the peptide on a particular viral gene."}, "[4]": {"conditions": "MOI comparison experiment, MOI 1 with 10 µM, 2 h post-infection, two independent experiments"}, "[5]": {"conditions": "MCMV MOI 1, 10 µM, 2 h post-infection"}, "[6]": {"conditions": "MCMV MOI 1, 10 µM, 4 h post-infection"}, "[7]": {"conditions": "MCMV MOI 1, 2 h post-infection, four independent experiments"}}, "data": [{"sequence": "GRKKRRQRRRPPQCLAFYACFC [TAT-I24, antiviral peptide, a fusion of the 9-mer peptide I24 and the TAT peptide]", "values": [{"measurement": "BrdU-labelled genomes seen in cells", "setting": "BrdU-labelled MCMV DNA; 10 µM during adsorption at 4 °C, 30 min post-cold release, no pepsin", "value": "almost no BrdU-labelled genomes"}, {"measurement": "BrdU-antibody staining after post-fixation pepsin treatment", "setting": "BrdU-labelled MCMV DNA; 10 µM during adsorption, pepsin 20 min at 37 °C after fixation and permeabilization", "value": "clear appearance of a punctate pattern"}, {"measurement": "effect on cell attachment and morphology", "setting": "MCMV; 20 µM", "value": "some effect on cell attachment and morphology"}, {"measurement": "cytopathic effects caused by the virus infection", "setting": "MCMV; MCMV MOI 1, 48 h post-infection, increasing concentrations of TAT-I24, crystal violet staining", "value": "inhibited"}, {"measurement": "viral DNA (genome copies by ie1 PCR)", "setting": "MCMV viral DNA; [4]", "value": "not reflected at the level of viral DNA"}, {"measurement": "viral DNA after 24 h", "setting": "MCMV viral DNA; NIH/3T3, MCMV MOI 1, 10 µM, 24 h post-infection", "value": "remained at background levels"}, {"measurement": "amount of viral DNA compared to untreated cells", "setting": "MCMV viral DNA; NIH/3T3, MCMV MOI 1, 10 µM, ie1 PCR, three independent experiments", "value": "about 60%"}, {"measurement": "reduction of ie1 transcript levels", "setting": "[1]; [4]", "value": 90, "unit": "%"}, {"measurement": "expression of spliced late gene m129/131", "setting": "[1]; NIH/3T3, MCMV MOI 1, 10 µM", "value": "reduced"}, {"measurement": "gene expression of M94 (late gene)", "setting": "[1]; NIH/3T3, MCMV MOI 1, 10 µM", "value": "strongly inhibited"}, {"measurement": "levels of m152 transcripts (early gene)", "setting": "[1]; NIH/3T3, MCMV MOI 1, 10 µM", "value": "strongly reduced"}, {"measurement": "m169 mRNA levels (early gene)", "setting": "[1]; NIH/3T3, MCMV MOI 1, 10 µM", "value": "strongly reduced"}, {"measurement": "reduction of ie1 transcript levels compared to untreated cells", "setting": "[1]; NIH/3T3, MCMV MOI 1, 10 µM, 2 h post-infection, four independent experiments", "value": "more than 90%"}, {"measurement": "ie1 transcript levels, comparison of peptides", "setting": "[1]; NIH/3T3, MCMV MOI 1, 2 h post-infection, four independent experiments", "value": "significant inhibitory effect"}, {"measurement": "Ccl5 transcript levels", "setting": "[2]", "value": "significantly reduced"}, {"measurement": "Ccl7 transcript levels", "setting": "[2]", "value": "significantly reduced"}, {"measurement": "Cxcl10 transcript levels", "setting": "[2]", "value": "significantly reduced"}, {"measurement": "cytotoxic effect (cell viability assay)", "setting": "NIH/3T3 cells", "value": "does not exert any cytotoxic effect"}, {"measurement": "Ccl5 transcript levels", "setting": "[3]; MCMV MOI 1, 10 µM", "value": "reduction"}, {"measurement": "Gadd45a mRNA levels, untreated vs peptide-treated cells", "setting": "[3]; MCMV MOI 1, 10 µM", "value": "no difference"}, {"measurement": "Herpud1 transcript levels, untreated vs peptide-treated cells", "setting": "[3]; MCMV MOI 1, 10 µM", "value": "no differences"}, {"measurement": "Top2a transcript levels", "setting": "[3]; MCMV MOI 1, 10 µM", "value": "no significant effect"}, {"measurement": "Ccl7 transcript levels", "setting": "[3]; [5]", "value": "reduced"}, {"measurement": "Cxcl10 transcript levels", "setting": "[3]; [5]", "value": "reduced"}, {"measurement": "Ifit1 transcript levels", "setting": "[3]; [5]", "value": "significantly reduced"}, {"measurement": "Nfkbia transcript levels", "setting": "[3]; [5]", "value": "reduced"}, {"measurement": "Ccl7 transcript levels", "setting": "[3]; [6]", "value": "started to increase"}, {"measurement": "Cxcl10 transcript levels", "setting": "[3]; [6]", "value": "started to increase"}, {"measurement": "Nfkbia mRNA levels", "setting": "[3]; [6]", "value": "comparable between untreated and peptide-treated cells"}, {"measurement": "Ifit1 mRNA levels", "setting": "[3]; MCMV MOI 1, 10 µM, after 4 h", "value": "also increased in the presence of the peptide"}, {"measurement": "Ccl5 expression, comparison of peptides", "setting": "[3]; [7]", "value": "significant reduction"}, {"measurement": "Ccl7 expression, comparison of peptides", "setting": "[3]; [7]", "value": "significant reduction"}, {"measurement": "Ifit1 expression, comparison of peptides", "setting": "[3]; [7]", "value": "significant reduction"}, {"measurement": "binding to DNA", "setting": "double-stranded DNA", "value": "binds DNA with high affinity"}]}]}
